The target in data set [1] is T1, Gonadotropin-releasing hormone receptor (Homo sapiens, UniProt P30968).
T1 sequence (P30968 whole entry): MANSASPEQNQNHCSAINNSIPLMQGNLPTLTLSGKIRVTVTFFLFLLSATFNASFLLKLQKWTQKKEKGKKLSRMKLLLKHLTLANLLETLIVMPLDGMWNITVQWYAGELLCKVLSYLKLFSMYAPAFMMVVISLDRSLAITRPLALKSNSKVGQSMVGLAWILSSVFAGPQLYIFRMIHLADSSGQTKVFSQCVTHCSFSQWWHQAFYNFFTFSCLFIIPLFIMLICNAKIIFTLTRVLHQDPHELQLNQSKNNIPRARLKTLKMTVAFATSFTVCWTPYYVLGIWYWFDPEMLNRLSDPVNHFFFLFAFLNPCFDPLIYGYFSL
As to the kind of experiment: Displacement of [125I]Pro-N-Et-GnRH from human cloned GnRH receptor expressed in HEK cells. The class given is cell-based, HEK293. A general note: Loss of bound radioactivity is the signal in a displacement assay; it reports binding, not function.

The target of a further data set is Cytochrome P450 3A4 (Homo sapiens, UniProt P08684). As to the kind of experiment: Inhibition of recombinant CYP3A4 by microtiter plate-based fluorimetric assay. The class given is ADME.
Chain of Cytochrome P450 3A4 (P08684 whole entry): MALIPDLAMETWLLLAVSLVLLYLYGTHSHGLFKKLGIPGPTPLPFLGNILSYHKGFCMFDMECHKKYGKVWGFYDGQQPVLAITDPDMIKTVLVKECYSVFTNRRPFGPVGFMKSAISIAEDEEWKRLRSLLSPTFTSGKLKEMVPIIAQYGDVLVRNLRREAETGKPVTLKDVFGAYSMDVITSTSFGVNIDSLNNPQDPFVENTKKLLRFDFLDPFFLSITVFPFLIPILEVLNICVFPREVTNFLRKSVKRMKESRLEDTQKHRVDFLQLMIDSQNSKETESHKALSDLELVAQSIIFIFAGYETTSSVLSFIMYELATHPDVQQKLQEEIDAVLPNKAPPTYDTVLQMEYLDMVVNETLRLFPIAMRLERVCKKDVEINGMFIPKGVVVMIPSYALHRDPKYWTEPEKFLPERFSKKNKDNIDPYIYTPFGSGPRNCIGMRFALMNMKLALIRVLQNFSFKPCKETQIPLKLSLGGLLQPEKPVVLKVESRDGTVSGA
Data set [2] addresses T1, Gonadotropin-releasing hormone receptor. As to the kind of experiment: Displacement of [125I]tyr5,D-Leu6,NMeLeu7-GnRH from human cloned GnRH receptor expressed in RBL cells. The class given is cell-based.
In a further data set the target is CYP3A4 (Homo sapiens, UniProt P08684). As to the kind of experiment: Inhibition of recombinant CYP3A4 at 200 uM by microtiter plate-based fluorimetric assay. The class given is ADME.
Chain of CYP3A4 (P08684 whole entry): as above
Data set [3] has as its target T1, Gonadotropin-releasing hormone receptor. As to the kind of experiment: Antagonist activity at human GnRH receptor expressed in RBL cells assessed as inhibition of GnRH-stimulated [3H]inositol phosphate hydrolysis by whole cell assay. The class given is functional, cell-based.
Data set [4] can be described thus: Permeability from apical to basolateral side of human Caco-2 cell membrane. The class given is ADME, cell-based. (In general: Caco-2 monolayers are a common model of the intestinal barrier.)
Data set [5] in a line: Oral bioavailability in Sprague-Dawley rat at 10 mg/kg. The following applies: in vivo. The class given is ADME, organism-based.
Data set [6] is described as follows: Clearance in Sprague-Dawley rat at 2.5 mg/kg, iv. The following applies: in vivo. Details: dose 2.5 mg/kg, route intravenous. The class given is ADME, organism-based.
A short description of data set [7]: Half life in Sprague-Dawley rat at 2.5 mg/kg, iv. The note with it: in vivo. The arrangement: dose 2.5 mg/kg, route intravenous. The class given is ADME, organism-based.

pIC50, pKi: −log10 of the molar value.

Regarding `N[C@@H](Cn1c(=O)c(-c2cccc(OCCCCCC(=O)O)c2F)cn(Cc2c(F)cccc2C(F)(F)F)c1=O)c1ccccc1`, in data set [1], the pKi – broadly, −log10 of the Ki, conventionally taken in molar units – is 7.48. Moreover, the pIC50 (commonly −log10 of the IC50, conventionally taken in molar units) at Cytochrome P450 3A4 was 4.60.
For `CN[C@@H](Cn1c(=O)c(-c2cccc(OCCC(C)(C)CC(=O)O)c2F)c(C)n(Cc2c(F)cccc2C(F)(F)F)c1=O)c1ccccc1`, the pIC50 on Cytochrome P450 3A4 was 4.66. Also, the pKi in [2] is 7.54.
`Cc1c(-c2cccc(OCC(=O)O)c2F)c(=O)n(C[C@H](N)c2ccccc2)c(=O)n1Cc1c(F)cccc1C(F)(F)F`: on CYP3A4, the inhibition – broadly, the drop in the measured response relative to a control, in per cent – at 200 µM came to 16%. Besides, in data set [2], the pKi was 7.28.
On to `Cc1c(-c2cccc(OCCCC(=O)O)c2)c(=O)n(C[C@H](N)c2ccccc2)c(=O)n1Cc1c(F)cccc1C(F)(F)F`, for which the pIC50 in [3] was 7.64. Also, in [2], the pKi was 8.12.
In [1], `N[C@@H](Cn1c(=O)c(-c2cccc(OCCCCC(=O)O)c2F)cn(Cc2c(F)cccc2C(F)(F)F)c1=O)c1ccccc1` had a negative logarithm of the Ki (pKi) of 7.47. The pIC50 on Cytochrome P450 3A4 is 4.44.
On to `Cc1c(-c2cccc(OCCCC(=O)O)c2F)c(=O)n(C[C@H](N)c2ccccc2)c(=O)n1Cc1c(F)cccc1C(F)(F)F`, for which, at CYP3A4, the inhibition at 200 µM was found to be 21%. In addition, the pKi in data set [2] is 8.33.
In the case of `Cc1c(-c2cccc(OCCCCC(=O)O)c2)c(=O)n(C[C@H](N)c2ccccc2)c(=O)n1Cc1c(F)cccc1C(F)(F)F`, in data set [4], the Papp A→B (in general, how fast a substance crosses the layer from the apical side) was found to be 0.1 ×10⁻⁶ cm/s. The pIC50 in data set [3] was 7.59; at Cytochrome P450 3A4, 4.66. In [1], the pKi was 8.39. In addition, in data set [5], the bioavailability – broadly, dose-corrected exposure relative to a reference, in per cent – was found to be 1.1%. Moreover, the clearance (as a rule, a measure of how efficiently the substance is removed, as volume per time) in [6] worked out at 7.5 mL/min/kg. In addition, the half-life (commonly the time in which the quantity being followed falls by half) in [7] was 10 h.
`CN[C@@H](Cn1c(=O)c(-c2cccc(OCCCN(C)CC(=O)O)c2F)c(C)n(Cc2c(F)cccc2C(F)(F)F)c1=O)c1ccccc1` had a pKi in [2] of 7.46.
With `CN[C@@H](Cn1c(=O)c(-c2cccc(OCCCCC(=O)O)c2F)c(C)n(Cc2c(F)cccc2C(F)(F)F)c1=O)c1ccccc1`, the Papp A→B in data set [4] amounted to 1.2 ×10⁻⁶ cm/s. In data set [1], this molecule showed a pKi of 8.92. Further, the pIC50 on Cytochrome P450 3A4 is 4.89. This molecule had a bioavailability in [5] of 13%. In addition, in [6], the clearance was 50 mL/min/kg. For the same molecule, the half-life in data set [7] is 5.1 h.
In turn, `CN[C@@H](Cn1c(=O)c(-c2cccc(OCCN(C)CC(=O)O)c2F)c(C)n(Cc2c(F)cccc2C(F)(F)F)c1=O)c1ccccc1` had a pKi in data set [2] of 7.01.
Same read-out and setting: for `Cc1c(-c2cccc(OCCC(=O)O)c2F)c(=O)n(C[C@H](N)c2ccccc2)c(=O)n1Cc1c(F)cccc1C(F)(F)F` the value was 8.00.
`Cc1c(-c2cccc(OCCCCCC(=O)O)c2)c(=O)n(C[C@H](N)c2ccccc2)c(=O)n1Cc1c(F)cccc1C(F)(F)F`: the pIC50 in data set [3] is 8.55. For the same molecule, the pKi in data set [1] is 8.68; in data set [2], 8.96. This molecule had a bioavailability in data set [5] of 4.8%. The same molecule displayed a clearance in data set [6] of 36 mL/min/kg. In [7], this molecule had a half-life of 4.9 h.
For `Cc1c(-c2cccc(OCCCCC(=O)O)c2F)c(=O)n(C[C@H](N)c2ccccc2)c(=O)n1Cc1c(F)cccc1C(F)(F)F`, in data set [4], the Papp A→B was found to be 0.1 ×10⁻⁶ cm/s. Also, the pIC50 in [3] was 8.59. The pKi in [1] was 8.92; in data set [2], 9.00. The molecule also had a bioavailability in data set [5] of 6.6%. In addition, the clearance in data set [6] came out at 14 mL/min/kg. This molecule also gave a half-life in [7] of 6.6 h.
`CN[C@@H](Cn1c(=O)c(-c2cccc(OCCCNCC(=O)O)c2F)c(C)n(Cc2c(F)cccc2C(F)(F)F)c1=O)c1ccccc1`: at Cytochrome P450 3A4, the pIC50 was 4.48. This molecule also gave a pKi in [2] of 6.81.
Take `CN[C@@H](Cn1c(=O)c(-c2cccc(OCCNCC(=O)O)c2F)c(C)n(Cc2c(F)cccc2C(F)(F)F)c1=O)c1ccccc1`: the pKi in data set [2] is 7.57.
For `Cc1c(-c2cccc(OCCCCCC(=O)O)c2F)c(=O)n(C[C@H](N)c2ccccc2)c(=O)n1Cc1c(F)cccc1C(F)(F)F`, the pIC50 is 9.22 in [3] and 5.09 on Cytochrome P450 3A4. The pKi in data set [1] was 8.89; in [2] it was 8.92. In addition, the bioavailability in [5] was found to be 3.7%. The same molecule registered a clearance in data set [6] of 21 mL/min/kg. This molecule also showed a half-life in data set [7] of 2.9 h.
`CN[C@@H](Cn1c(=O)c(-c2cccc(OCCOCC(=O)O)c2F)c(C)n(Cc2c(F)cccc2C(F)(F)F)c1=O)c1ccccc1`: the pIC50 at Cytochrome P450 3A4 is 5.00. The molecule also showed a pKi in data set [2] of 8.03.
As to `Cc1c(-c2cccc(OCCCCC(=O)O)c2F)c(=O)n(C[C@@H](c2ccccc2)N(C)C)c(=O)n1Cc1c(F)cccc1C(F)(F)F`, in data set [4], the Papp A→B came out at 17 ×10⁻⁶ cm/s. Moreover, the pKi in data set [1] is 7.82. Also, the pIC50 on Cytochrome P450 3A4 is 4.38.
On to `CN[C@@H](Cn1c(=O)c(-c2cccc(OCCCOCC(=O)O)c2F)c(C)n(Cc2c(F)cccc2C(F)(F)F)c1=O)c1ccccc1`, for which the pIC50 at Cytochrome P450 3A4 is 4.66. In addition, the pKi in [2] is 7.42.
